Measurements published in PubChem BioAssay (NCI).
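GI50 is the concentration that inhibits growth by half. TGI marks complete inhibition of growth.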

Tests used:
Assay in all cases: inhibition of tumour cell growth, NCI panel, 384-well format
MALME-3M melanoma = system: MALME-3M melanoma
PC-3 prostate = system: PC-3 prostate
HCT-116 colon = system: HCT-116 colon
IGROV1 ovarian = system: IGROV1 ovarian
NCI/ADR-RES ovarian = system: NCI/ADR-RES ovarian
CCRF-CEM leukemia = system: CCRF-CEM leukemia
SK-MEL-2 melanoma = system: SK-MEL-2 melanoma
BT-549 breast = system: BT-549 breast
SK-MEL-28 melanoma = system: SK-MEL-28 melanoma
ACHN renal = system: ACHN renal
SW-620 colon = system: SW-620 colon
COLO 205 colon = system: COLO 205 colon
MOLT-4 leukemia = system: MOLT-4 leukemia

With CNC(=O)c1ccc(-c2cnc3ncc(Cc4ccc5ncccc5c4)n3n2)cc1F the GI50 (MALME-3M melanoma) was over 100 µM, the TGI (MALME-3M melanoma) was over 100 µM and the GI50 (PC-3 prostate) was over 100 µM. It also gave a TGI (PC-3 prostate) of over 100 µM, a GI50 (HCT-116 colon) of over 100 µM and a TGI (HCT-116 colon) of over 100 µM. For the same compound, the GI50 (IGROV1 ovarian) was over 100 µM, the TGI (IGROV1 ovarian) was over 100 µM and the GI50 (NCI/ADR-RES ovarian) was over 100 µM. It also gave a TGI (NCI/ADR-RES ovarian) of over 100 µM, a GI50 (CCRF-CEM leukemia) of over 100 µM and a TGI (CCRF-CEM leukemia) of over 100 µM. For the same compound, the GI50 (SK-MEL-2 melanoma) was over 100 µM, the TGI (SK-MEL-2 melanoma) was over 100 µM and the GI50 (BT-549 breast) was over 100 µM. It also gave a TGI (BT-549 breast) of over 100 µM, a GI50 (SK-MEL-28 melanoma) of over 100 µM and a TGI (SK-MEL-28 melanoma) of over 100 µM. The GI50 (ACHN renal) was over 100 µM, the TGI (ACHN renal) was over 100 µM and the GI50 (SW-620 colon) was over 100 µM. It also gave a TGI (SW-620 colon) of over 100 µM, a GI50 (COLO 205 colon) of over 100 µM and a TGI (COLO 205 colon) of over 100 µM. The GI50 (MOLT-4 leukemia) was over 100 µM and the TGI (MOLT-4 leukemia) was over 100 µM.
